Laboratory results published in patent US20260217701A1, “SELECTIVE BET INHIBITORS AND USES THEREOF” (Tay Therapeutics Limited, priority 2022, published 2026).
Where “and” joins values, the source holds several entries; their conditions need not be identical. Equal entries are not always repeated. Where two headings read alike, the source gives them in different places.

Columns and labels:
[1] = Rat PK study #4 (Compound A PO 0.2 and 1.0 mg/kg, propylene glycol formulation); format: in vivo, Lewis rats; conditions: 1 mg/kg and 10 mg/kg doses, rats
[2] = Dog PK study #2 (Compound A IV, HPBCD formulation); format: in vivo, beagle dogs
Protocol: For Dog PK study #2, a solution of Compound A was prepared in HPBCD (20% solution w/v)/DMSO (99/1) with a concentration of 0.5 mg/mL (Table 2B). The Compound A solution was administered to animals intravenously (IV), and animals were monitored over a 24 h period (Table 3C). Body weight was recorded prior to dosing, and detailed clinical observations were made prior to dosing and throughout the study, as needed.
Blood samples (~0.3 mL) were collected according to a schedule (shown below) by venipuncture of peripheral veins except for the dosing vein, and EDTA-K2 was used as anticoagulant. Within 30 minutes of collection, the samples were centrifuged at approximately 2000 times g-force for 10 minutes at 4° C. to obtain blood plasma. The plasma samples were immediately divided into two aliquots (~75 μL each), transferred to a cryogenic vial, and stored in a freezer at −75+15° C. prior to analysis.
Blood samples were collected at 0.083, 0.25, 0.5, 1, 2, 4, 8, and 24 h following the initial dosing (0 h).
The concentration of Compound A in the blood plasma was determined through liquid chromatography-mass spectrometry (LC-MS). The experiments were conducted on a Shimadzu HPLC(DGU-20A5R; LC-30AD; SIL-30AC; Rack Changer II; CTO-30A; and CBM-20A) and AB API 5500 LC/MS/MS instrument with an Agilent Poroshell EC-C18 4 μm (50×2.1 mm) column. A gradient of 95% water (0.1% formic acid)/95% acetonitrile (0.1% formic acid) was used as the mobile phase. The sample injection volume was 4 μL, and the flow rate was 0.6 mL/min. The gathered data were used for pharmacokinetic calculations using T1/2, CO, AUClast, AUCinf, MRTinf, Cl, Vss, and Number of Points for Regression as parameters.
The desired serial concentrations of working solutions were achieved by diluting stock solution of analyte with 50% acetonitrile in water solution. 5 μL of working solutions (5, 10, 20, 50, 100, 500, 1000, 5000, 10000 ng/ml) were added to 50 µL of the blank Beagle Dogs plasma to achieve calibration standards of 0.5~1000 ng/ml (0.5, 1, 2, 5, 10, 50, 100, 500, 1000 ng/ml) in a total volume of 55 μL. Five quality control samples at 1 ng/ml, 2 ng/mL, 5 ng/ml, 50 ng/mL and 800 ng/mL for plasma were prepared independently of those used for the calibration curves. These QC samples were prepared on the day of analysis in the same way as calibration standards.
55 μL standards, 55 μL QC samples and 55 μL unknown samples (50 μL plasma with 5 μL blank solution) were added to 200 μL of acetonitrile containing IS mixture (verapamil) for precipitating protein respectively. Then the samples were vortexed for 30 s. After centrifugation at 4° C., 3900 rpm for 15 min, the supernatant was diluted 3 times with water. 4 μL of diluted supernatant was injected into the LC/MS/MS system for quantitative analysis.

[3] = IV 1 mg/kg, HPBCD formulation, individual animals, 1 mg/kg
[4] = IV 1 mg/kg, HPBCD formulation, mean
[5] = beagle, dog, plasma, iv, 1 mg/kg, IV 1 mg/kg, HPBCD formulation, individual animals, read-out: Plasma concentration
[6] = beagle, dog, plasma, iv, 1 mg/kg, IV 1 mg/kg, HPBCD formulation, mean, read-out: Average plasma concentration
[7] = beagle, dog, plasma, iv, 1 mg/kg, IV 1 mg/kg, HPBCD formulation, mean

Cn1cc(-c2ccccc2)c(-c2cn(C)c(=O)c3[nH]c(-c4cnn(C(F)(F)F)c4)cc23)cc1=O [Compound A, 6-methyl-4-(1-methyl-2-oxo-5-phenyl-1,2-dihydropyridin-4-yl)-2-(1-(trifluoromethyl)-1H-pyrazol-4-yl)-1,6-dihydro-7H-pyrrolo[2,3-c]pyridin-7-one]
duration of exposure above the free EC50 BD2 BRD4 [1]: 24 h
clinical observations, HPBCD vs propylene glycol formulation ([2]; IV): fewer clinical observations
AUClast [2, 3]: 4.409 µg·h/mL and 1.577 µg·h/mL and 1.732 µg·h/mL
AUClast/D [2, 3]: 4409 (ng · h/mL)/(mg/kg) and 1577 (ng · h/mL)/(mg/kg) and 1732 (ng · h/mL)/(mg/kg)
AUClnf [2, 3]: 4.854 µg·h/mL and 1.674 µg·h/mL and 2.083 µg·h/mL
AUC—%Extrap—obs [2, 3]: 9.17% and 5.83% and 16.8%
C0 [2, 3]: 0.476 µg/mL and 0.41 µg/mL
CI_obs [2, 3]: 0.206 L/h/kg and 0.597 L/h/kg and 0.48 L/h/kg
MRTlnf—obs [2, 3]: 9.30 h and 6.26 h and 11.8 h
T1/2 [2, 3]: 6.45 h and 10.1 h
Vss—obs [2, 3]: 1.91 L/kg and 3.74 L/kg and 5.67 L/kg
AUClast/D [2, 4]: 2573 (ng · h/mL)/(mg/kg)
AUC—%Extrap—obs [2, 4]: 10.6%
CI_obs [2, 4]: 0.428 L/h/kg
MRTlnf—obs [2, 4]: 9.1 h
concentration at 0.083 h [2, 5]: 0.479 µg/mL
concentration at 0.083 h [2, 6]: 0.446 µg/mL
concentration at 0.25 h [2, 5]: 0.54 µg/mL
concentration at 0.25 h [2, 6]: 0.45 µg/mL
concentration at 0.5 h [2, 5]: 0.405 µg/mL
concentration at 0.5 h [2, 6]: 0.328 µg/mL
concentration at 1 h [2, 5]: 0.331 µg/mL
concentration at 1 h [2, 6]: 0.269 µg/mL
concentration at 2 h [2, 5]: 0.323 µg/mL
concentration at 2 h [2, 6]: 0.232 µg/mL
concentration at 4 h ([2]; beagle, dog, plasma, iv, 1 mg/kg, IV 1 mg/kg, HPBCD formulation, 4 h, mean): 0.176 µg/mL
concentration at 8 h ([2]; beagle, dog, plasma, iv, 1 mg/kg, IV 1 mg/kg, HPBCD formulation, 8 h, mean): 0.1 µg/mL
concentration at 24 h ([2]; beagle, dog, plasma, iv, 1 mg/kg, IV 1 mg/kg, HPBCD formulation, 24 h, mean): 0.026 µg/mL
half-life ([2]; beagle, dog, plasma, iv, 1 mg/kg, IV 1 mg/kg, HPBCD formulation, individual animals): 7.11 h
C0 ([2]; beagle, dog, plasma, iv, 1 mg/kg, IV 1 mg/kg, HPBCD formulation, individual animals, read-out: C0): 0.479 µg/mL
AUC [2, 7]: 2.87 µg·h/mL
AUC(0-t) [2, 7]: 2.57 µg·h/mL
half-life [2, 7]: 7.9 h
C0 ([2]; beagle, dog, plasma, iv, 1 mg/kg, IV 1 mg/kg, HPBCD formulation, mean, read-out: C0): 0.455 µg/mL
Vd ([2]; beagle, dog, plasma, iv, 1 mg/kg, IV 1 mg/kg, HPBCD formulation, mean, read-out: Vss—obs): 3.77 L/kg
